This note sets out measurements from ChEMBL document CHEMBL1151256, “New alkaloids and a tetraflavonoid from Cephalotaxus wilsoniana” (J Nat Prod, 2004).

One experiment deals with HepG2. Kind of experiment: Cytotoxicity against human HepG2 cells after 6 days by MTT assay. The experiment is classed as functional, cell-based. As to conditions: HepG2, 144 h. (In general: Formazan colour is commonly taken as a measure of viable cells.)
For another experiment, the system named is MCF7. Briefly: Cytotoxicity against human MCF7 cells after 6 days by MTT assay. As to conditions: MCF7, 144 h. The experiment is classed as functional, cell-based.
Experiment [1] in a line: Cytotoxicity against human Hep3B cells after 6 days by MTT assay. The settings on record: 144 h. The class given is functional, cell-based, Hep 3B2.
For the next experiment, the system named is HT-29. Kind of experiment: Cytotoxicity against human HT-29 cells after 6 days by MTT assay. The class given is functional, cell-based. The settings on record: HT-29, 144 h.

≈ marks a conversion by molar mass, not a printed value.

In general, IC50 refers to the midpoint of a concentration-inhibition curve. For the molecule `COc1cc2c(cc1OC)C13C[C@@H](OC)C=C[C@@]14O[C@H]4C(=O)N3CCC2` (some centres undefined), the IC50 in the experiment on HepG2 turned out to be 52 µg/mL (≈ 145 µM); in the experiment on MCF7 it was 42 µg/mL (≈ 118 µM); in experiment [1] it was 52 µg/mL (≈ 145 µM); with HT-29, 24.4 µg/mL (≈ 68.3 µM).
